Read-outs that look alike come from different tables or passages of the source.
What was measured:
[1] = test system: Apo.-induced schizophrenic mouse model; assay: Apomorphine-induced schizophrenic mouse model, stereotyped behaviors; format: in vivo; conditions: for ED50: Mus musculus, read-out: ED50, inhibition of the total stereotyped behaviors; for Score of stereotyped behaviors: total score in 60 min, mean ± SD
Procedure: The drugs are administered by gastric gavage. The model control group is given the same volume of solvent by gastric gavage.
Total score of the stereotyped behaviors of the mice such as tail erection and wall-climbing in the 60 minutes is calculated.
The clinical response symptoms of the animals shall be recorded during the administration and test procedures.

[2] = in vivo; conditions: mouse
Procedure: Observation of general symptoms: the animals are observed at about 0.5, 1, 2, 4, and 6 hours respectively, after the first administration on the first day, and observed twice a day, one in the morning and one in the afternoon, on the second to the sixth day. Observed objects include but are not limited to general condition, behavior activity, gait and posture, eye, mouth, nose, gastrointestinal tract, skin and hair, and genitourinary tract. • (2) Statistical Analysis
Body weight is expressed in mean±SD. Comparison among groups is carried out with Levene's test and one-way ANOVA, followed by Dunnet t test if there exists a difference.
(1) The acute toxicity of the representative compounds of □, □, □ classes is investigated with the method of Example 81.

[3] = test system: Salmonella typhimurium TA98 and TA100; assay: Bacterial reverse mutation test (Ames); conditions: TA98 and TA100, with or without S9
[4] = test system: MK-801-induced schizophrenic mouse model; assay: MK-801-induced schizophrenic mouse model, open-field movement; conditions: for ED50: Mus musculus, po, read-out: ED50, total distance of the open-field movement; for Total distance of the spontaneous movement (cm): 60 min, mean ± SD
[5] = target: D2 receptor (Homo sapiens (Human), UniProt P14416); assay: Dopamine D2 receptor binding test; conditions: read-out: Affinity of the compound to D2 receptor, Ki value
Sequence of D2 receptor (P14416 whole entry): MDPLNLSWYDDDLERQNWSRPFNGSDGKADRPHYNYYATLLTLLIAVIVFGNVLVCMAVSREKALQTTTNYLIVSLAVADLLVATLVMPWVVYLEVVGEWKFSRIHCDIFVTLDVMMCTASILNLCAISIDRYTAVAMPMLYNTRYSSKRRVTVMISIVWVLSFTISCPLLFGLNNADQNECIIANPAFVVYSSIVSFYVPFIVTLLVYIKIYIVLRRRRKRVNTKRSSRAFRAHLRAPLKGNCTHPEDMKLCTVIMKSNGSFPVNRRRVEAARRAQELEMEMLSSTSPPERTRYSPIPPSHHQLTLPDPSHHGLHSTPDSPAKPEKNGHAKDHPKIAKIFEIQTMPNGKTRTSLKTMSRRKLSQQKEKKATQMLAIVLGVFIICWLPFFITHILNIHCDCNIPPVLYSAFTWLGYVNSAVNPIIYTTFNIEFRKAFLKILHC
Text: This experiment utilizes the plasmid vector containing the gene of D2 receptor protein for transfecting HEK293 cells by calcium phosphate transfection method.
(§1) Beckman LS-6500 multifunction liquid scintillation counter.

[6] = target: human recombinant D3 receptor (Homo sapiens (Human), UniProt P35462); assay: Dopamine D3 receptor binding test; conditions: read-out: Affinity of the compound to D3 receptor, Ki value
Sequence of human recombinant D3 receptor (P35462 whole entry): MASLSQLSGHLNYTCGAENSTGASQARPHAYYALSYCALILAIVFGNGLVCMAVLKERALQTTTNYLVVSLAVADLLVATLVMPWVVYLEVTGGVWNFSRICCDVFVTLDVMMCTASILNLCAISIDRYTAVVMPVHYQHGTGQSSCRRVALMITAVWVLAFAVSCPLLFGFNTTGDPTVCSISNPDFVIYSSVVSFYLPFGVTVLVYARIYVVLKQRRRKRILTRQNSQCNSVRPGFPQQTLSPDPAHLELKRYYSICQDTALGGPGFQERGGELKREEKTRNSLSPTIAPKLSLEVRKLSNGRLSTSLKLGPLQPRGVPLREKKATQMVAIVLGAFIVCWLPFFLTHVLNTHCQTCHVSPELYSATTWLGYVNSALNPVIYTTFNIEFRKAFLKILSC
Procedure: With [^3H]methyl-spiperone (0.3 nM) as the ligand and (+)-butaclamol (10 LM) for determining non-specific binding, binding tests are carried out on human recombinant D3 receptor (expressed in CHO cells).

[7] = target: 5-HT1A receptor (Homo sapiens (Human), UniProt P08908); assay: 5-HT1A receptor binding test; conditions: read-out: Affinity of the compound to 5-HT1A receptor, Ki value
Sequence of 5-HT1A receptor (P08908 whole entry): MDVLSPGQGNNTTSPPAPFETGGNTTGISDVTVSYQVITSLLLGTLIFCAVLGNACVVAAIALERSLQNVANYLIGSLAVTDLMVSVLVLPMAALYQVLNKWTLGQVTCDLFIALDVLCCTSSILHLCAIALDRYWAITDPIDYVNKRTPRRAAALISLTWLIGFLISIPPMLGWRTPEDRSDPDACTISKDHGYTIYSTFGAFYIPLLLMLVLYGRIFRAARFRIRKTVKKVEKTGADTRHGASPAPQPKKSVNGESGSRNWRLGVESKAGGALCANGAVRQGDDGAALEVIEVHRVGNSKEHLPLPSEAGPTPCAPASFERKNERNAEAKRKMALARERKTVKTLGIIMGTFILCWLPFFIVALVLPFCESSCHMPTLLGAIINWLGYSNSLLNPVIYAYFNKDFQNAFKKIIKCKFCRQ
Procedure: Cells: HEK-293 cells stably expressing 5-HT1A receptors as obtained by gene recombination are cultured for 3-5 days in cell culture medium DMEM supplemented with 10% serum.
Competitive inhibition ratio of each compound at the concentration of 10 μmol/L to inhibit the binding of [^3H]8-OH-DPAT to 5-HT1A receptor is determined for primary screening.
The components are mixed to homogeneity, and then the above tubes are transferred to water bath at 30° C. (1 h), removed into ice bath immediately, and suction filtered on Harvest (with ice cold Tris eluate for 5 times).

[8] = target: 5-HT2A receptor (Homo sapiens (Human), UniProt P28223); assay: 5-HT2A receptor binding test; conditions: read-out: Affinity of the compound to 5-HT2A receptor, Ki value
Sequence of 5-HT2A receptor (P28223 whole entry): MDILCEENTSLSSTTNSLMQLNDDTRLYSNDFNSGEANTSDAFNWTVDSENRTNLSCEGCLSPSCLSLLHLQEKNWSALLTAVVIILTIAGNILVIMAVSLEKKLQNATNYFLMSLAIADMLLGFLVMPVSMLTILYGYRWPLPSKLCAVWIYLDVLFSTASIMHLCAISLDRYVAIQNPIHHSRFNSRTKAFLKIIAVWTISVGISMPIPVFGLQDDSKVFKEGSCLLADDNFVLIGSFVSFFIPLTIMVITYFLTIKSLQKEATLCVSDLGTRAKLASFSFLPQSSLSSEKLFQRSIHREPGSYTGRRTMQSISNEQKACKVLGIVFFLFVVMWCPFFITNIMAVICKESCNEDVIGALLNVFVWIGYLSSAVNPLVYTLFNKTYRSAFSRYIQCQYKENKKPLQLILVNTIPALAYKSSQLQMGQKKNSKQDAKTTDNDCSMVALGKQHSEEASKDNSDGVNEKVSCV
Text: as §1

[9] = single oral administration, Apo.-induced model
[10] = single oral administration, ICR mice, read-out: LD50
[11] = [3H]Spiperone, D2 receptor expressed in HEK293 cells
[12] = [3H]methyl-spiperone 0.3 nM, human recombinant D3 receptor in CHO cells
[13] = [3H]8-OH-DPAT, HEK-293 cells expressing 5-HT1A receptors
[14] = [3H]-Ketanserin, 5-HT2A receptor expressed in HEK293 cells

Row | SMILES | ED50 [1, 9] [mg/kg] | Ames test result (colonies with reverse mutations) [3] | ED50 [4] [mg/kg] | Ki [5, 11] [nM] | Ki [6] [nM] | LD50 at 6 days ([2]; ICR, po) [mg/kg] | Ki [6, 12] [nM] | Ki [7, 13] [nM] | Ki [8, 14] [nM] | also measured
1 | COC(=O)N[C@H]1CC[C@@H](CCN2CCN(c3nsc4ccccc34)CC2)CC1 [III-14, cis-(4-(2-(4-(benzo[d]isothiazol-3-yl)piperazin-1-yl)ethyl)cyclohexyl)methylcarbamate] | 0.45 | negative | 0.058 | – | – | – | – | – | – | LD50 at 6 days [2, 10]: 1080 mg/kg
2 | O=C(N[C@H]1CC[C@H](CCN2CCN(c3nsc4ccccc34)CC2)CC1)c1cc2ccccc2[nH]1 [Compound I-4, trans-N-(4-(2-(4-(benzo[d]isothiazol-3-yl)piperazin-1-yl)ethyl)cyclohexyl)-1H-indolyl-2-carboxamide] | 0.37 | negative | 0.073 | 0.43 | 0.029 | > 2000 | – | – | – | –
3 | O=C(N[C@H]1CC[C@H](CCN2CCN(c3nsc4ccccc34)CC2)CC1)c1cc2cc([N+](=O)[O-])ccc2[nH]1 [Compound I-15, trans-N-(4-(2-(4-(benzo[d]isothiazol-3-yl)piperazin-1-yl)ethyl)cyclohexyl)-5-nitro-1H-indolyl-2-carboxamide] | – | – | – | 21.3 | – | – | 4.03 | 8.45 | 2.65 | –
4 | CC(C)COC(=O)N[C@H]1CC[C@H](CCN2CCN(c3nsc4ccccc34)CC2)CC1 [III-3, trans-N-(4-(2-(4-(benzo[d]isothiazol-3-yl)piperazin-1-yl)ethyl)cyclohexyl)isobutylcarbamate] | 0.76 | negative | 0.061 | – | – | – | – | – | – | LD50 at 6 days [2, 10]: > 2000 mg/kg
5 | O=C(NCc1ccccc1)N[C@H]1CC[C@H](CCN2CCN(c3nsc4ccccc34)CC2)CC1 [IV-11] | – | negative | – | – | 0.18 | – | – | – | 0.91 | Ki [5]: 1.4 nM; Ki [7]: 5.3 nM; ED50, inhibition of the total stereotyped behaviors [1, 9]: 0.53 mg/kg; ED50, total distance of the open-field movement ([4]; single oral administration, MK-801-induced model): 0.060 mg/kg
6 | O=S(=O)(N[C@H]1CC[C@H](CCN2CCN(c3nsc4ccccc34)CC2)CC1)c1cc2ccccc2o1 [II-5, trans-N-(4-(2-(4-(benzo[d]isothiazol-3-yl)piperazin-1-yl)ethyl)cyclohexyl)benzofuryl-2-sulfamide] | 0.64 | negative | 0.088 | 0.58 | 0.085 | 1100 | – | 10.6 | – | –
7 | O=S(=O)(N[C@H]1CC[C@H](CCN2CCN(c3nsc4ccccc34)CC2)CC1)c1cccs1 [II-1, trans-N-(4-(2-(4-(benzo[d]isothiazol-3-yl)piperazin-1-yl)ethyl)cyclohexyl)thienyl-2-sulfamide] | 0.2 | negative | 0.074 | 0.43 | – | > 2000 | 0.043 | 3.3 | – | –
8 | CCc1c(C(=O)N[C@H]2CC[C@H](CCN3CCN(c4nsc5ccccc45)CC3)CC2)sc2ccccc12 [Compound I-13, trans-N-(4-(2-(4-(benzo[d]isothiazol-3-yl)piperazin-1-yl)ethyl)cyclohexyl)-3-ethylbenzo[b]thienyl-2-carboxamide] | – | – | – | 1.78 | – | – | 1.42 | 4.07 | 4.9 | –
9 | O=C(N[C@H]1CC[C@H](CCN2CCN(c3nsc4ccccc34)CC2)CC1)c1cc2ccccc2s1 [Compound I-6, trans-N-(4-(2-(4-(benzo[d]isothiazol-3-yl)piperazin-1-yl)ethyl)cyclohexyl)benzo[b]thienyl-2-carboxamide] | 0.23 | negative | 0.038 | 1.81 | 0.035 | > 2000 | – | – | – | Ki [8]: 0.72 nM; effect on stereotyped behaviors (in words) ([1]; apomorphine mouse model, oral): greater improvement ratio than RGH-188; Score of stereotyped behaviors ([1]; single oral administration 0.12 mg/kg): 23.02 ± 8.32; Score of stereotyped behaviors ([1]; single oral administration 0.40 mg/kg): 4.01 ± 3.65; Score of stereotyped behaviors ([1]; single oral administration 0.90 mg/kg): 0.71 ± 0.94; effect on the open-field movement (in words) ([4]; MK-801 mouse model, oral): greater improvement ratio than RGH-188; Total distance of the spontaneous movement (cm) ([4]; single oral administration 0.02 mg/kg): 19482.27 ± 11047.75 cm; Total distance of the spontaneous movement (cm) ([4]; single oral administration 0.03 mg/kg): 17280.33 ± 9364.31 cm; Total distance of the spontaneous movement (cm) ([4]; single oral administration 0.05 mg/kg): 11145.52 ± 6988.56 cm; Total distance of the spontaneous movement (cm) ([4]; single oral administration 0.09 mg/kg): 7796.38 ± 4382.94 cm
10 | O=C(N[C@H]1CC[C@H](CCN2CCN(c3nsc4ccccc34)CC2)CC1)OCc1ccccc1 [III-11] | 0.1 | negative | 0.092 | – | – | – | – | – | – | LD50 at 6 days [2, 10]: 1240 mg/kg
11 | O=C(N[C@H]1CC[C@@H](CCN2CCN(c3nsc4ccccc34)CC2)CC1)c1cc2ccccc2[nH]1 [Compound I-22, cis-N-(4-(2-(4-(benzo[d]isothiazol-3-yl)piperazin-1-yl)ethyl)cyclohexyl)-1H-indolyl-2-carboxamide] | 0.59 | negative | 0.062 | 1.9 | 0.071 | 1530 | – | – | – | –
12 | CN(C(=O)N[C@H]1CC[C@H](CCN2CCN(c3nsc4ccccc34)CC2)CC1)c1ccccc1 [IV-6, trans-3-(4-(2-(4-(benzo[d]isothiazol-3-yl)piperazin-1-yl)ethyl)cyclohexyl)-1-methyl-1-phenylurea] | 0.48 | negative | 0.084 | – | 0.13 | 1390 | – | 4.6 | – | –
13 | O=S(=O)(N[C@H]1CC[C@H](CCN2CCN(c3nsc4ccccc34)CC2)CC1)c1ccc(Cl)o1 [II-8, trans-N-(4-(2-(4-(benzo[d]isothiazol-3-yl)piperazin-1-yl)ethyl)cyclohexyl)-5-chlorofuryl-2-sulfamide] | – | – | – | 10.8 | – | – | 4.51 | 3.96 | 1.96 | –
14 | Cc1ccsc1C(=O)N[C@H]1CC[C@H](CCN2CCN(c3nsc4ccccc34)CC2)CC1 [Compound I-11, trans-N-(4-(2-(4-(benzo[d]isothiazol-3-yl)piperazin-1-yl)ethyl)cyclohexyl)-3-methylthienyl-2-carboxamide] | – | – | – | 4.81 | – | – | 0.37 | 2.84 | 2.01 | –
15 | O=C(Nc1ccccc1)N[C@H]1CC[C@H](CCN2CCN(c3nsc4ccccc34)CC2)CC1 [IV-1, trans-1-(4-(2-(4-(benzo[d]isothiazol-3-yl)piperazin-1-yl)ethyl)cyclohexyl)-3-phenylurea] | – | – | – | 1.06 | – | – | 1.42 | 3.65 | 0.83 | –

Source: patent US9550741B2, “Benzoisothiazole compounds and methods of treating schizophrenia” (SHANGHAI INSTITUTE OF PHARMACEUTICAL INDUSTRY, priority 2013, dated 2017)
